Target: T1, human zDHHC2 (Homo sapiens, UniProt Q9UIJ5)
T1 construct: expressed in transfected cells; host or cells: HEK293T
T1 sequence (Q9UIJ5 1-367): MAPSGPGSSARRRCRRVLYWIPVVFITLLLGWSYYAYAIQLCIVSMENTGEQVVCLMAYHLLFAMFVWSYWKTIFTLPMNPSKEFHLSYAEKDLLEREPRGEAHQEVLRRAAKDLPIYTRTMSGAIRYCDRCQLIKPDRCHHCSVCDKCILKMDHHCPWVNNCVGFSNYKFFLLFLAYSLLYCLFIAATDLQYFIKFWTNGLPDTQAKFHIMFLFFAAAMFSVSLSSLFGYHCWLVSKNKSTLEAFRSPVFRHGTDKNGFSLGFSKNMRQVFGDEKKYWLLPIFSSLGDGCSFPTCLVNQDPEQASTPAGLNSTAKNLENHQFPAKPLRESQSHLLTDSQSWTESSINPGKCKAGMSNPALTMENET
Assay: GFP-SNAP25b S-acylation in HEK293T cells co-expressing zDHHC2, copper-catalyzed click chemistry, Western blot
Type: cell-based
Settings: for inhibition at 25 µM: HEK-293T, compound 25 μM, 4 h preincubation + 4 h labeling, read-out: SNAP25 S-acylation inhibition (%), zDHHC2; for inhibition at 25 µM / zDHHC2-mediated substrate (SNAP25) S-acylation Hill slope / IC50: in cellulo HEK293T; for zDHHC2-mediated substrate (SNAP25) S-acylation Hill slope / IC50: Western blot; for IC50: read-out: zDHHC2-mediated substrate (SNAP25) S-acylation IC50 (95 CI); for GFP-SNAP25 S-acylation in cell-based assays, newly synthesized compounds: resynthesized (UoS) material vs original hits, Supplemental Fig. 2 (zD2, zD3, zD7, zD15, zD17)
Description: The inhibitory activity of TTZ-1 and TTZ-2 on cells expressing SNAP25 and zDHHC2 was also examined. Human embryonic kidney 293T (HEK293T) cells were transfected with plasmids encoding GFP-tagged SNAP25b and HA-tagged zDHHC2. Cells were then preincubated for 4 h with either dimethyl sulfoxide (DMSO) as a vehicle control or increasing concentrations of TTZ-1/TTZ-2 (diluted in serum-free medium) before being metabolically labeled for a further 4 h with C16:0-azide. Samples were then lysed and processed by copper-catalyzed click chemistry to reveal the extent of S-acylation.
Figure 5 Activity of TTZ-1 and TTZ-2 against SNAP25 S-acylation by human zDHHC2 expressed in mammalian cells. HEK293T cells were transfected with a plasmid encoding GFP-SNAP25b together with a plasmid encoding human zDHHC2 (+zD2) or a control plasmid pEF-BOS-HA. Cells were preincubated for 4 h with increasing concentrations of TTZ-1 (A) or TTZ-2 (B) or DMSO (as a control) before metabolic labeling with 100 μM C16:0-azide for another 4 h. Cells were lysed, and proteins having incorporated C16:0-azide were labeled by click chemistry with an alkyne-IR800 dye. Protein samples were then resolved by SDS-PAGE and transferred to nitrocellulose membranes that were probed with an anti-GFP antibody (IR680). Representative images are shown for cells treated with TTZ-1 (A) or TTZ-2 (B). Top panels, click chemistry signal (top panel, Click [IR800]) and GFP immunoblot (middle panel, GFP [IR680]). Positions of the molecular mass markers (in kilodalton) are indicated on the right side of the membranes. Bottom panels A and B, data from three independent experiments performed in duplicate were quantified, and the inhibition of GFP-SNAP25b S-acylation was determined as stated in the Experimental procedures section. Graphs show mean ± SEM of inhibition of normalized S-acylation (click signal/GFP signal) in the presence of each compound. Data were analyzed and fit to a nonlinear curve using the log(inhibitor) versus normalized response (variable slope) equation. DMSO, dimethyl sulfoxide; HA, hemagglutinin; HEK293T, human embryonic kidney 293T cell line; TTZ, tetrazole; zDHHC, zinc finger DHHC domain–containing protein.
HEK293T cells were plated on poly-D-lysine–coated 24-well plates (catalog no.: 356413; Corning BioCoat, VWR) and transfected with 2.4 μg of pEF-zDHHC2 plasmid (or the control empty plasmid pEF-BOS-HA) for the measurement of zDHHC2 autoacylation and 4.8 μl of Lipofectamine 2000 (Invitrogen). For substrate acylation, cells were transfected with 1.6 μg of pEF-zDHHC plasmid (or the control empty plasmid pEF-BOS-HA) together with 0.8 μg of EGFP-SNAP25b plasmid and 4.8 μl of Lipofectamine 2000. Twenty-four hours post-transfection, cells were washed once with PBS and preincubated with ONO or UoS compounds diluted in 250 μl of serum-free DMEM for 4 h. S-acylation labeling was then started by the addition of 50 μl of 600 μM of either unmodified palmitic acid C16:0 or C16:0-azide (final concentration of 100 μM) diluted in serum-free DMEM supplemented with 1 mg/ml fatty acid–free BSA (Sigma; catalog no.: A7030). Cells were labeled for 4 h, washed once with PBS, then lysed on ice in 100 μl of 50 mM Tris (pH 8) containing 0.5% SDS and protease inhibitors (Sigma; catalog no.: P8340). Conjugation of IR800 alkyne dye or mPEG5K alkyne to C16:0-azide was carried out for 1 h at room temperature with end-over-end rotation by adding an equal volume of freshly prepared click chemistry reaction mixture containing the following: 5 μM IRDye 800CW alkyne (catalog no.: 929-60002; Li-COR) or 200 μM of mPEG5K-alkyne (catalog no.: JKA3177; Sigma), 4 mM CuSO4 (catalog no.: 451657; Sigma), 400 μM Tris[(1-benzyl-1H-1,2,3-triazol-4-yl)methyl]amine (catalog no.: 678937; Sigma), and 8 mM ascorbic acid (catalog no.: A15613; Alpha Aesar) in distilled water. About 67 μl of 4 × SDS-PAGE sample buffer containing 100 mM DTT was then added to the 200 μl sample. […]

SMILES	inhibition at 25 µM [%]	zDHHC2-mediated substrate (SNAP25) S-acylation Hill slope	IC50 [µM]	GFP-SNAP25 S-acylation in cell-based assays, newly synthesized compounds
O=C(Nc1cccc2c1OC(c1nnn[nH]1)CN2)c1ccc(OCCCCc2ccccc2)cc1 (centres unmarked) [TTZ-2, N-(2-(1H-Tetrazol-5-yl)-3,4-dihydro-2H-benzo[b][1,4]oxazin-8-yl)-4-(4-phenylbutoxy)benzamide]	84 ± 6	4.6	18.8	results comparable to the original hit compounds
CCCCCCCOc1ccc(C(=O)Nc2cccc3c2OC(c2nnn[nH]2)CN3)cc1 (centres unmarked) [TTZ-1, N-(2-(1H-Tetrazol-5-yl)-3,4-dihydro-2H-benzo[b][1,4]oxazin-8-yl)-4-(heptyloxy)benzamide]	113 ± 5	7.6	14.4	results comparable to the original hit compounds

— paper PMC9558053, “Development of a novel high-throughput screen for the identification of new inhibitors of protein S-acylation” (The Journal of Biological Chemistry, 2022)
